Assay results taken from PubChem BioAssay (NCI).
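Cultured in 96-well plates, cells were exposed to test compound for 48 hours across five concentrations. Here, GI50 denotes the concentration required for 50% inhibition of growth. TGI: concentration producing complete growth inhibition.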

Tests used:
Experiment in all cases: NCI-60 cell line screen, 48 h
[1] = system: SF-295 CNS
[2] = system: NCI-H226 lung
[3] = system: HL-60(TB) leukemia
[4] = system: LOX IMVI melanoma
[5] = system: UACC-257 melanoma
[6] = system: DU-145 prostate
[7] = system: RPMI-8226 leukemia
[8] = system: MALME-3M melanoma
[9] = system: NCI-H522 lung
[10] = system: SK-OV-3 ovarian
[11] = system: HCC-2998 colon
[12] = system: MDA-MB-435
[13] = system: MOLT-4 leukemia
[14] = system: EKVX NSCLC
[15] = system: OVCAR-4 ovarian
[16] = system: SK-MEL-2 melanoma
[17] = system: SN12C renal
[18] = system: U251 CNS
[19] = system: HS 578T breast
[20] = system: SW-620 colon
[21] = system: 786-0 renal
[22] = system: M14 melanoma
[23] = system: NCI/ADR-RES ovarian
[24] = system: ACHN renal
[25] = system: IGROV1 ovarian
[26] = system: SF-539 CNS
[27] = system: CAKI-1 renal
[28] = system: OVCAR-8 ovarian
[29] = system: SF-268 CNS
[30] = system: UO-31 renal
[31] = system: HCT-15 colon
[32] = system: BT-549 breast
[33] = system: HOP-62 NSCLC
[34] = system: SNB-19 CNS
[35] = system: RXF 393 renal
[36] = system: CCRF-CEM leukemia
[37] = system: A549 NSCLC
[38] = system: COLO 205 colon
[39] = system: HOP-92 NSCLC
[40] = system: OVCAR-5 ovarian
[41] = system: HT29 colon
[42] = system: A498 renal
[43] = system: MDA-MB-231 breast
[44] = system: PC-3 prostate
[45] = system: NCI-H23 lung
[46] = system: SK-MEL-5 melanoma
[47] = system: T-47D breast
[48] = system: MCF7 breast
[49] = system: KM12 colon
[50] = system: SK-MEL-28 melanoma
[51] = system: TK-10 renal
[52] = system: NCI-H460 lung
[53] = system: K-562 leukemia
[54] = system: SNB-75 CNS
[55] = system: HCT-116 colon
[56] = system: UACC-62 melanoma
[57] = system: OVCAR-3 ovarian

C[n+]1c(-c2ccccc2)c2cc(N)ccc2c2ccccc21 was tested, and the GI50 [1] was 5.68 µM, the TGI [1] was > 78.1 µM and the GI50 [2] was 8.7 µM. The TGI [2] was > 58.5 µM, the GI50 [3] was 6.01 µM and the TGI [3] was 25.1 µM. For the same molecule, the GI50 [4] was 4.16 µM, the TGI [4] was > 70.7 µM and the GI50 [5] was 4.73 µM. For the same molecule, the TGI [5] was > 100 µM, the GI50 [6] was 4120 nM and the TGI [6] was 57.3 µM. It also gave a GI50 [7] of 1640 nM, a TGI [7] of 9.75 µM and a GI50 [8] of 1980 nM. For the same molecule, the TGI [8] was 6.63 µM, the GI50 [9] was 3.91 µM and the TGI [9] was > 100 µM. For the same molecule, the GI50 [10] was 11.7 µM, the TGI [10] was > 91.9 µM and the GI50 [11] was 2000 nM. For the same molecule, the TGI [11] was 7.97 µM, the GI50 [12] was 3220 nM and the TGI [12] was 14.2 µM. For the same molecule, the GI50 [13] was 1990 nM, the TGI [13] was 20.5 µM and the GI50 [14] was 7.97 µM. The TGI [14] was > 100 µM, the GI50 [15] was 2.84 µM and the TGI [15] was 16 µM. It also gave a GI50 [16] of 6.08 µM, a TGI [16] of 32.9 µM and a GI50 [17] of 2130 nM. The TGI [17] was 20.2 µM, the GI50 [18] was 1390 nM and the TGI [18] was > 44.3 µM. For the same molecule, the GI50 [19] was 2760 nM, the TGI [19] was 12.3 µM and the GI50 [20] was 3380 nM. For the same molecule, the TGI [20] was 50.5 µM, the GI50 [21] was 7.87 µM and the TGI [21] was > 100 µM. The GI50 [22] was 8.94 µM, the TGI [22] was 32.7 µM and the GI50 [23] was > 100 µM. The TGI [23] was > 100 µM, the GI50 [24] was > 63.7 µM and the TGI [24] was > 100 µM. The GI50 [25] was 5.78 µM, the TGI [25] was > 44.2 µM and the GI50 [26] was 3490 nM. The TGI [26] was 15.5 µM, the GI50 [27] was > 59.8 µM and the TGI [27] was > 100 µM. For the same molecule, the GI50 [28] was 12.4 µM, the TGI [28] was > 100 µM and the GI50 [29] was 534 nM. For the same molecule, the TGI [29] was 7.07 µM, the GI50 [30] was > 83.8 µM and the TGI [30] was > 100 µM. The GI50 [31] was > 100 µM, the TGI [31] was > 100 µM and the GI50 [32] was 2440 nM. For the same molecule, the TGI [32] was 16.7 µM, the GI50 [33] was 7.13 µM and the TGI [33] was 38.2 µM. It also gave a GI50 [34] of 2090 nM, a TGI [34] of 20.6 µM and a GI50 [35] of 26.3 µM. For the same molecule, the TGI [35] was > 100 µM, the GI50 [36] was 3400 nM and the TGI [36] was 29.5 µM. The GI50 [37] was 5.1 µM, the TGI [37] was > 47.7 µM and the GI50 [38] was 1970 nM. It also gave a TGI [38] of 6 µM, a GI50 [39] of 2.57 µM and a TGI [39] of 20 µM. The GI50 [40] was 25.4 µM, the TGI [40] was > 100 µM and the GI50 [41] was 3450 nM. The TGI [41] was 22.3 µM, the GI50 [42] was 19.6 µM and the TGI [42] was > 79.5 µM. It also gave a GI50 [43] of 13.3 µM, a TGI [43] of 60 µM and a GI50 [44] of 4.45 µM. It also gave a TGI [44] of 31.8 µM, a GI50 [45] of 2280 nM and a TGI [45] of 12.2 µM. It also gave a GI50 [46] of 2110 nM, a TGI [46] of 6.5 µM and a GI50 [47] of 2420 nM. The TGI [47] was 14.9 µM, the GI50 [48] was 2430 nM and the TGI [48] was 17.9 µM. For the same molecule, the GI50 [49] was 2.87 µM, the TGI [49] was 14.8 µM and the GI50 [50] was 2.19 µM. The TGI [50] was 4.95 µM, the GI50 [51] was 8.69 µM and the TGI [51] was > 59.5 µM. The GI50 [52] was 3200 nM, the TGI [52] was 26.4 µM and the GI50 [53] was 2510 nM. The TGI [53] was 28.4 µM, the GI50 [54] was 1280 nM and the TGI [54] was 3.07 µM. It also gave a GI50 [55] of 2750 nM, a TGI [55] of 44.6 µM and a GI50 [56] of 2000 nM. It also gave a TGI [56] of 5.03 µM, a GI50 [57] of 3480 nM and a TGI [57] of 22.2 µM.
COc1cc2c3c(n(CCCNCCNCCN)c(=O)c2cc1OC)-c1cc2c(cc1C3=O)OCO2 gave a GI50 [1] of 0.522 µM, a TGI [1] of 11.4 µM and a GI50 [2] of 4.08 µM. The TGI [2] was 21.4 µM, the GI50 [3] was 1.14 µM and the TGI [3] was 15.6 µM. For the same molecule, the GI50 [4] was 2.67 µM, the TGI [4] was 18.3 µM and the GI50 [5] was 15.2 µM. It also gave a TGI [5] of 35.9 µM, a GI50 [6] of 1140 nM and a TGI [6] of 5.82 µM. The GI50 [7] was 1220 nM, the TGI [7] was 3.44 µM and the GI50 [8] was 699 nM. The TGI [8] was 5.75 µM, the GI50 [9] was 2.85 µM and the TGI [9] was > 24.3 µM. The GI50 [10] was 12.1 µM, the TGI [10] was > 100 µM and the GI50 [11] was 3200 nM. The TGI [11] was 23.8 µM, the GI50 [12] was 2670 nM and the TGI [12] was 10.6 µM. It also gave a GI50 [13] of 186 nM, a TGI [13] of 1.8 µM and a GI50 [14] of 1.68 µM. For the same molecule, the TGI [14] was 8.1 µM, the GI50 [15] was 5.09 µM and the TGI [15] was > 31 µM. The GI50 [16] was 6.94 µM, the TGI [16] was 17.4 µM and the GI50 [17] was 2500 nM. The TGI [17] was 64.7 µM, the GI50 [18] was 1850 nM and the TGI [18] was > 100 µM. For the same molecule, the GI50 [19] was 3070 nM, the TGI [19] was 15.7 µM and the GI50 [20] was 2130 nM. It also gave a TGI [20] of 43.8 µM, a GI50 [21] of 1.91 µM and a TGI [21] of 14.7 µM. For the same molecule, the GI50 [22] was 3.35 µM, the TGI [22] was 14.7 µM and the GI50 [23] was > 100 µM. The TGI [23] was > 100 µM, the GI50 [24] was 3.3 µM and the TGI [24] was > 53.2 µM. The GI50 [25] was 5.21 µM, the TGI [25] was > 100 µM and the GI50 [26] was 551 nM. For the same molecule, the TGI [26] was 3.21 µM, the GI50 [27] was 3.38 µM and the TGI [27] was 22.9 µM. It also gave a GI50 [28] of 1.46 µM, a TGI [28] of 11.2 µM and a GI50 [29] of 1720 nM. The TGI [29] was 21.7 µM, the GI50 [30] was 47.8 µM and the TGI [30] was > 100 µM. The GI50 [31] was 11.9 µM, the TGI [31] was > 100 µM and the GI50 [32] was 3090 nM. For the same molecule, the TGI [32] was 15 µM, the GI50 [33] was 2.8 µM and the TGI [33] was 20.5 µM. For the same molecule, the GI50 [34] was 2120 nM, the TGI [34] was > 100 µM and the GI50 [35] was 5.78 µM. For the same molecule, the TGI [35] was > 29.3 µM, the GI50 [36] was 83.5 nM and the TGI [36] was 1.58 µM. For the same molecule, the GI50 [37] was 3.55 µM, the TGI [37] was 62.2 µM and the GI50 [38] was 2580 nM. For the same molecule, the TGI [38] was > 100 µM, the GI50 [39] was 4.85 µM and the TGI [39] was 37.7 µM. The GI50 [40] was 3.61 µM, the TGI [40] was > 25.2 µM and the GI50 [41] was 1720 nM. For the same molecule, the GI50 [42] was 19.1 µM, the TGI [42] was 39.6 µM and the GI50 [43] was 0.904 µM. The TGI [43] was 6.97 µM, the GI50 [44] was 5.62 µM and the TGI [44] was > 55.5 µM. For the same molecule, the GI50 [45] was 1920 nM, the TGI [45] was 8.95 µM and the GI50 [46] was 1990 nM. The TGI [46] was 9.5 µM, the GI50 [47] was 2990 nM and the TGI [47] was > 100 µM. For the same molecule, the GI50 [48] was 434 nM, the GI50 [49] was 3.41 µM and the TGI [49] was 17.8 µM. The GI50 [50] was 4.65 µM, the TGI [50] was > 39.1 µM and the GI50 [51] was 3.23 µM. The TGI [51] was 22.4 µM, the GI50 [52] was 2080 nM and the TGI [52] was > 42.6 µM. The GI50 [53] was 1180 nM, the TGI [53] was 15.9 µM and the GI50 [54] was 277 nM. The TGI [54] was 9.47 µM, the GI50 [55] was 831 nM and the TGI [55] was 2.19 µM. The GI50 [56] was 2340 nM, the TGI [56] was 12.8 µM and the GI50 [57] was 1480 nM. For the same molecule, the TGI [57] was 6.01 µM.
